A short description of series [1]: Determination of log P values by HPLC on a reverse phase column (C18), EEC-Directive 79/831 Annex V.A8 (Methods A, B, C). It counts as physicochemical. An outline of the steps:
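LogP was determined by C18 reverse-phase HPLC/UPLC with acetonitrile/water eluents containing formic acid. Method A used a 10–95% acetonitrile gradient over 4.25 min at 55 °C and 2.0 mL/min. Method B used 5–95% over 1.70 min at 55 °C and 2.0 mL/min, and Method C used 10–95% over 3.25 min at 40 °C and 0.8 mL/min, with MS detection.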

Another series relates to Phytophthora infestans. The settings on record: in vivo.
The next series relates to Pyrenophora teres. Particulars: in vivo.
The subject of a further series is Pyricularia oryzae. Type of series: in vivo. Particulars: in vivo.
Another series relates to Puccinia recondita. The settings on record: in vivo.
The next series has as its system Sphaerotheca fuliginea. The settings on record: in vivo.
The test system of the next series is Uromyces appendiculatus. Particulars: in vivo.
Series [2] deals with DON/Acetyl-DON production by Fusarium graminearum. As to the kind of experiment: microbe, parasite or virus in culture. Type of series: cell-based. Particulars: at 50 μM.
For the next series, the system named is Fusarium graminearum. In words: microbe, parasite or virus in culture. Type of series: cell-based. Particulars: at 50 μM.
The next series deals with Septoria tritici. Particulars: in vivo.
A further series has as its system Botrytis cinerea. As to the kind of experiment: Example N: in vivo preventive test on Botrytis cinerea (grey mould). The settings on record: dose of 500 ppm; gherkin plants; grading 4-5 days after contamination. How it is done: The active ingredients tested are prepared by homogenization in a mixture of acetone/tween/DMSO and then diluted with water to obtain the desired active material.
Gherkin plants (“Vert petit de Paris” variety), sown in starter cups on a 50/50 peat soil-pozzolana substrate and grown at 24° C., are treated at the Z11 cotyledon stage by spraying with the active ingredient prepared as described above. Plants, used as controls, are treated with the mixture of acetone/tween/DMSO/water not containing the active material.
After 24 hours, the plants are contaminated by spraying the cotyledons with an aqueous suspension of cryopreserved Botrytis cinerea spores (50 000 spores per ml). The spores are suspended in a nutrient solution composed of 10 g/L of PDB, 50 g/L of D-Fructose, 2 g/L of NH4NO3 and 1 g/L of KH2PO4. The contaminated gherkin plants are incubated at 17° C. and at 80% relative humidity.
Grading (% of efficacy) is carried out 4-5 days after the contamination, in comparison with the control plants.

Where [3] appears, read: Method A: HPLC, reverse phase C18, acetonitrile (0.1% formic acid)/water (0.09% formic acid) gradient.
The mark [4] stands for this setting: Method B (HPLC, reverse phase C18).

As a reminder, the LogP is a log measure of how a compound divides between an organic and an aqueous phase. Take `CCC(=O)Nc1cc(-c2c(-c3ccc(F)cc3)nn3c2O[C@H](C)C[C@@H]3C)ccn1` [Example 73]: the LogP in [1] (setting [3]) is given as 1.74. For the same compound, the “protection (% of efficacy)” value in the series with Phytophthora infestans came to 85%; with Pyrenophora teres it was 94%; in the series with Pyricularia oryzae it was 90%; with Puccinia recondita it was 88%; in the series with Sphaerotheca fuliginea it was 100%; in the series on Uromyces appendiculatus, 86%. Also, in series [2], the “Inhibition of DON/AcDON in %” value is reported as 100%. Also, the “Growth inhibition of Fusarium graminearum in %” value (“Growth inhibition … in %” for short) in the series with Fusarium graminearum stood at 83%.
Turning to `CCC(=O)Nc1cc(-c2c(-c3ccc(F)cc3)nn3c2O[C@H](C)C[C@H]3C)ccn1` [Example 72], the LogP in [1] (setting [3]) is listed as 1.84. Moreover, the “protection (% of efficacy)” value in the series with Phytophthora infestans amounted to 75%; with Pyrenophora teres it was 94%; in the series on Pyricularia oryzae it was 80%; in the series with Puccinia recondita, 98%; in the series with Septoria tritici it was 75%; in the series on Sphaerotheca fuliginea it was 100%. For the same compound, the “protection (% of efficacy)” value with Uromyces appendiculatus is 96%. Also, in series [2], the “Inhibition of DON/AcDON in %” value is given as 100%. Further, the “Growth inhibition … in %” value in the series on Fusarium graminearum stood at 77%.
Turning to `CCC(=O)Nc1cc(-c2c(-c3ccc(F)cc3)nn3c2OC(C)C3C)ccn1` (centres unmarked) [Example 75], the LogP in [1] (setting [3]) amounted to 1.67. The “protection (% of efficacy)” value in the series with Phytophthora infestans was 95%; in the series on Pyrenophora teres it was 98%; in the series with Pyricularia oryzae it was 90%; in the series on Puccinia recondita, 88%; with Sphaerotheca fuliginea, 100%; in the series on Uromyces appendiculatus, 100%. Moreover, the “Inhibition of DON/AcDON in %” value in series [2] worked out at 100%. In addition, in the series with Fusarium graminearum, the “Growth inhibition … in %” value came to 88%.
Compound `CCC(=O)Nc1cc(-c2c(-c3ccc(F)cc3)nn3c2OCC(F)(F)C3)ccn1` [Example 74] returned a lipophilicity (LogP) in series [1] (setting [3]) of 1.9. For the same compound, the “protection (% of efficacy)” value in the series on Phytophthora infestans is listed as 79%; in the series on Pyrenophora teres, 81%; with Pyricularia oryzae it was 80%; in the series with Puccinia recondita it was 88%; in the series on Sphaerotheca fuliginea, 94%.
With `O=C(Nc1cc(-c2c(-c3ccc(F)cc3)nn3c2OCCC3)ccn1)C1CC2CCC1C2` (centres unmarked) [Example 64], the lipophilicity (LogP) in series [1] (setting [4]) is listed as 3.11. Also, the “protection (% of efficacy)” value in the series with Botrytis cinerea came to 100%; in the series on Pyricularia oryzae it was 80%; with Puccinia recondita, 81%; in the series on Septoria tritici, 86%; in the series on Sphaerotheca fuliginea, 100%. For the same compound, the “Inhibition of DON/AcDON in %” value in series [2] amounted to 98%. Also, in the series with Fusarium graminearum, the “Growth inhibition … in %” value is 83%.
With `C[S+]([O-])C(C)(C)C(=O)Nc1cc(-c2c(-c3ccc(F)cc3)nn3c2OCCC3)ccn1` (centres unmarked) [Example 68], in series [1] (setting [4]), the LogP came to 1.69. The “protection (% of efficacy)” value in the series on Botrytis cinerea stood at 80%; in the series with Pyricularia oryzae, 80%; with Puccinia recondita, 81%; in the series on Septoria tritici, 93%; with Sphaerotheca fuliginea, 89%.
Consider `O=C(CN1CCCCC1)Nc1cc(-c2c(-c3ccc(F)cc3)nn3c2OCCC3)ccn1` [Example 66], for which the LogP in series [1] (setting [4]) is listed as 1. Further, the “protection (% of efficacy)” value in the series on Pyricularia oryzae was determined as 80%; in the series with Puccinia recondita, 81%; in the series on Septoria tritici it was 79%; in the series on Sphaerotheca fuliginea it was 94%.

(Values after US9023844B2, “Heterocyclylpyri (mi) dinylpyrazole as fungicidals” (Bayer Intellectual Property GmbH, priority 2011, dated 2015).)
